Measurements taken from PMC7179022, “Carvacrol Prodrugs with Antimicrobial Activity Loaded on Clay Nanocomposites” (Materials, 2020).
Values after ≈ are worked out from the molar mass of the structure shown.

Experiments:
[1] = Chemical conversion of carvacrol prodrugs to carvacrol in water and buffer solutions (HPLC); format: physicochemical; details: 37 °C, 1 mg/mL, mean (±SD) of three experiments
Description: We removed 400 μL samples at various time intervals and drug concentrations were analyzed by high performance liquid chromatography (HPLC) using an Agilent 1260 Infinity II HPLC (Agilent, Santa Clara, CA, USA) consisting of quaternary pump, autosampler, column oven, and UV-Vis diode-array detector. Samples were run in an Agilent Poroshell 120 EC-C18 column (4 μm, 4.60 × 150 mm; Agilent, Santa Clara, CA, USA) maintained at 25 °C. The mobile phase consisted of a mixture 50:50 v/v H2O MilliQ (Merck KGaA, Darmstadt, Germany) and CH3CN with 0.1% trifluoracetic acid (TFA) flushing at an isocratic flow rate of 1 mL/min. The detector was set at a wavelength of 270 nm. Data were processed using LC Open LAB HPLC 1260 software (Agilent, Santa Clara, CA, USA). Results are reported as relative difference (RD%) of prodrugs conversion, calculated with Equation (1):(1) RD%=Ci− Cf/Ci ×100 where Ci is the prodrug concentration at zero time point and Cf is the prodrug concentration at the end of incubation.

[2] = In vitro release studies of WSCP1-3 loaded-VHS in a dissolution tester; format: physicochemical; details: 37 °C, from prodrug-VHS nanohybrid
Description: Release studies were conducted in a dissolution tester (Sotax AT7, SOTAX Group, Aesch, Switzerland). […] During the test, temperature was maintained constant at 37 °C and agitation was achieved using a paddle system set to 100 rpm. At predetermined time intervals, 5 mL of dissolution medium was withdrawn, filtered with 0.45 μm Millipore^© membranes, and replaced with an equal volume of the corresponding fresh dissolution medium. […] Va is the volume picked up; and Ci is the concentration of drug at time i.

[3] = set-up: method as in PMID 16869897, PMID 31284397; details: cited from earlier work
[4] = cited from earlier work
[5] = acid pH (0.1 M HCl, pH 1.2), 120 min
[6] = pH 6.8 phosphate buffer, 240 min

pseudo-first-order dissociation rate constant Kobs ([1]; pH 6.8 buffer)	amount of prodrug released from VHS [2, 5]	amount of prodrug released from VHS [2, 6]	pseudo-first-order dissociation rate constant Kobs ([1]; pH 7.4 buffer)	Compound	octanol/water partition coefficient (logP o/w) [3]	water solubility [4]
0.2982 (±0.0106) h^−1	38%	65%	–	Cc1ccc(C(C)C)cc1OC(=O)CN [WSCP1]	–	–
0.9027 (±0.0042) h^−1	54%	78%	0.7878 (±0.0629) h^−1	Cc1ccc(C(C)C)cc1OC(=O)[C@@H](C)N [WSCP2]	–	–
0.0381 (±0.0002) h^−1	45%	44%	0.0420 (±0.0006) h^−1	Cc1ccc(C(C)C)cc1OC(=O)CCN [WSCP3]	–	–
–	–	–	–	Cc1ccc(C(C)C)cc1O [carvacrol, 2-methyl-5-isopropylphenol]	3.64	110 µg/mL (≈ 732 µM)
